Laboratory results taken from PubChem BioAssay AID489033 (Sanford-Burnham Center for Chemical Genomics, 2010).
Activity calls are given as the source filed them. How the calls were made is not given here.

Test system: 697B B-cell line, NF-kB luciferase reporter luminescence
Assay: inhibitors of B-cell NF-kB luciferase signal – 697B cells, luminescence, selectivity assay for T-cell antigen receptor NF-kB inhibitors, dose response (AID 489033)

`COc1ccc(CS(=O)/C(Cl)=C(/Cl)C(=O)Nc2ccc(OC)nc2)cc1` (stereo not given) was tested, and the IC50 was 1.57 µM.
`Cc1cc(C)c2nc(C)cc(N/N=C/c3ccc(O)cc3)c2c1` gave an IC50 of 3.49 µM.
In the case of `COCCn1c(C)cc(C2=NNC(=Nc3ccccc3F)SC2)c1C`, the IC50 is reported as 20.7 µM (inactive).
With `CCn1c2ccccc2c2cc(Nc3cc(C)nc4ncnn34)ccc21` the IC50 was 47 µM (inactive).
For `CCC(=O)NC(c1cccs1)c1ccc2cccnc2c1O` (stereo not given), the IC50 was > 80 µM (inactive).
In the case of `O=c1oc2ccccc2cc1-c1cn(-c2ccccc2)c(=S)[nH]1`, the IC50 is reported as 0.55 µM.
`Cc1ccc(-c2cc(C(F)F)n3ncc(C(=O)N4CCc5ccccc54)c3n2)cc1` was tested, and the IC50 was > 80 µM (inactive).
In the case of `Cc1ccc(-c2cc3c(N=O)c4ccccc4c-3n[nH]2)cc1`, the IC50 is reported as 4.58 µM.
With `CCCc1cc(C(=O)N/N=C/c2ccc(CC)s2)c2ccccc2n1` the IC50 was 11.6 µM.
With `O=C(Nc1ccc(S(=O)(=O)N2CCOCC2)cc1)c1ccc(CN2CCc3ccccc3C2)cc1` the IC50 was > 80 µM (inactive).
`C=C(C=O)C[C@@H]1C[C@H](O)C2OC3C[C@]4(C)OC5/C=C\CC6OC7C(CC=CCC6OC5CCCC4OC3CC2O1)OC1CC2OC3CC(=O)OC3C[C@@H](C)C[C@@]2(C)OC1C[C@@H]7C` (stereo not given in full) was tested, and the IC50 was 1.02 µM.
For `CCCN(CCC)C1=CC(=[N+]2CCCC2)CC(C)(C)C1`, the IC50 was 22.6 µM (inactive).
With `COc1cc(-c2noc(C)c2/C=C/c2ccc(OC(C)=O)cc2)cc(OC)c1OC` the IC50 was > 80 µM (inactive).
For `C=CCNC(=S)N/N=C(\C)c1ccccn1`, the IC50 was 0.61 µM.
With `CC(=O)Nc1ccc(S(=O)(=O)N2CCCc3ccccc32)cc1` the IC50 was > 80 µM (inactive).
For `COc1cc(C(=O)N2CCN(c3cc(Cl)ccc3Cl)CC2)cc(OC)c1OC`, the IC50 was > 80 µM (inactive).
For `O=C(Cc1ccc(-c2ccccc2)cc1)NCc1ccccc1`, the IC50 was > 80 µM (inactive).
In the case of `COc1cc(C2c3cc4c(cc3C(OC3OC5COC(c6cccs6)OC5C(O)C3O)C3COC(=O)C23)OCO4)cc(OC)c1O` (stereo not given), the IC50 is reported as 3.94 µM.
`Clc1cccc(Cl)c1OCCOCCNCc1ccccc1` was tested, and the IC50 was > 80 µM (inactive).
For `O=C(N=Nc1c(O)[nH]c2ccc(Br)cc12)c1ccccc1-n1cccc1`, the IC50 was 57 µM (inactive).
In the case of `COc1ccc(NC(=O)/C(Cl)=C(/Cl)S(=O)Cc2ccccc2Cl)cn1` (stereo not given), the IC50 is reported as 1.27 µM.
For `C=C(C)COc1ccc(-c2[nH]ncc2-c2ccc(OC)c(OC)c2)c(O)c1`, the IC50 was 41.7 µM (inactive).
With `CCOC(=O)CSC1=C(C#N)C(c2ccc(C)s2)CC(=O)N1` (stereo not given) the IC50 was > 80 µM (inactive).
With `COc1ccc(C2=Nn3c([n+](C)c4ccccc43)SC2)cc1` the IC50 was 31 µM (inactive).
Work on `C/C(=N\NC(=O)c1ccc(Cl)c(Cl)c1)c1ccccn1` yielded an IC50 of 1.03 µM.
With `COc1ccc(S(=O)(=O)N2N=C(C)Oc3ccccc3C2=O)cc1` the IC50 was > 80 µM (inactive).
`CC(C)c1oc(=O)cc2c1[C@@H](O)[C@H]1OC(=O)[C@@]3(C)CC[C@@H](O)[C@@]2(C)C13` (stereo not given in full) was tested, and the IC50 was 14 µM.
For `Cc1ccc(S(=O)(=O)NCc2ccncc2)c(C)c1C`, the IC50 was > 80 µM (inactive).
For `C/C(=N\NC(=O)c1cc(C)nc2ccccc12)c1ccccn1`, the IC50 was 1.23 µM.
Work on `CCOc1cccc(/C=N/Nc2ccc(S(=O)(=O)N(CC)CC)cn2)c1O` yielded an IC50 of 11.3 µM.
With `CCOCCCNC(=O)c1cc2c(=O)n3cccc(C)c3nc2n1C` the IC50 was > 80 µM (inactive).
`COc1ccc(CNS(=O)(=O)c2cc(-c3cc(C)no3)ccc2C(C)C)cc1` was tested, and the IC50 was > 80 µM (inactive).
Compound `Nc1nc(Cl)cc(N2CCC(c3cc(-c4ccc(Cl)cc4)n[nH]3)CC2)n1` has an IC50 of 5.28 µM.
For `O=C(Nc1ccc([N+](=O)[O-])cc1)Nc1ccon1`, the IC50 was > 80 µM (inactive).
`Cc1cc(C(C)(C)C)cc(C)c1C[n+]1ccc2ccccc2c1` was tested, and the IC50 was > 80 µM (inactive).
For `O=c1cc(-c2ccccc2)[nH]c2cc(F)ccc12`, the IC50 was > 80 µM (inactive).
For `Cc1nc(SCC(=O)Nc2nc3ccccc3s2)c(C#N)c(C)c1C`, the IC50 was less than 0.16 µM.
`O=c1cc(-c2ccccc2)[nH]c2ccccc12` was tested, and the IC50 was > 80 µM (inactive).
Compound `CC(=O)c1ccc(N2CCN(S(=O)(=O)c3ccc4c(c3)CC(C)N4C(=O)C3CC3)CC2)cc1` (stereo not given) has an IC50 of 0.72 µM.
With `CCOC(=O)c1ccc2nc(Nc3nc4ccc(F)cc4s3)sc2c1` the IC50 was 20.3 µM (inactive).
